Experimental data from patent US20150313897A1, “METHODS FOR TREATING PARKINSON'S DISEASE” (Teva Pharmaceuticals International GmbH, priority 2009, published 2015).
Entries after “also recorded” stand apart in the source; their conditions may differ.

Columns and labels:
Type in all cases: in vivo, rhesus monkeys
[1] = tested on: MPTP treated monkeys; test: Activity monitoring system (AMS), 12-hour light/dark cycle
Experimental: (§1) In the Experimentation Phase, the monkeys were assigned to one of three treatment groups: Group 1—oral ropinirole TID using the mean lowest effective dose determined in the Dose Finding Phase. Group 2—NP201 releasing ropinirole at a dose of either approximately 1/9th or 1/18th of the total daily oral TID dose), e.g., for a single 1.00 mg/kg oral dose, the daily dose would be 3.00 mg/kg/day and the implant doses would then be 0.33 mg/kg/day or 0.17 mg/kg/day, respectively. Group 3—Control group will receive both a subcutaneous placebo implant and an oral placebo TID.
The activity monitoring system (“AMS”) records a 12-hour light/dark cycle. Each monkey was fitted with a monkey jacket that contained an activity monitor (Actitrac 1M Systems, Baltimore, Md.) in the inside back pocket. This activity monitor measured motion along its vertical and horizontal axes digitizing acceleration signals at a 40 Hertz sampling rate and stored the average acceleration value calculated during each consecutive time interval. The number of pulses was expressed for a pre-selected time period (1 minute). Data was collected continuously in 1-minute bins for a period of to 14 days. At the end of the period, the monkeys were again tranquilized with ketamine (15 mg/kg, intramuscularly), the activity monitor was removed and interfaced with a computer, and the data was downloaded. The data was expressed as the mean activity of each 12-hour light/dark cycle.

[2] = tested on: MPTP treated monkeys; test: Clinical Rating Scale (CRS) in primate model of Parkinson's Disease; conditions: NP201 at 1/9th of the oral dose; p<0.05
Experimental: In the MPTP Induction Phase, the monkeys were made bilaterally Parkinsonian with the use of MPTP. Monkeys received an initial dose of 0.3 mg/kg MPTP through a unilateral intracarotid injection and twice weekly injections of 0.3 mg/kg intravenous (i.v.) MPTP until they achieve a score of between 7.0 and 20.5 (e.g., 12 or higher) on the clinical rating scale with moderate bilateral Parkinsonism. Intravenous MPTP is administered at 3-5 day intervals. The actual cumulative number of i.v. MPTP injections is determined by the onset of stable bilateral symptoms. This protracted time course of i.v. MPTP administration allowed for development and evaluation of new Parkinsonian symptoms following each MPTP administration. […]
In the Experimentation Phase, the monkeys were assigned to one of three treatment groups: Group 1—oral ropinirole TID using the mean lowest effective dose determined in the Dose Finding Phase. […]
A Clinical Rating Scale for neurobehavioral examination was used to assess the clinical status of the monkeys under; normal, MPTP, and MPTP+treatment conditions, once per week, according to previously published protocols. […] Subjects were assessed once per week. All groups were assessed one hour after dosing. […] Occurrence of dyskinesia, psychological disturbances and vomiting were also recorded.

[3] = Ropinirole plasma levels (PK) after NP201 implant or TID oral ropinirole; conditions: oral ropinirole group relative to NP201
Experimental: as §1
In order to collect Pharmacokinetic (“PK”) samples, monkeys were tranquilized with ketamine (7-10 mg/kg intramuscularly) in order to collect 1 cc of blood from the saphenous vein. Plasma samples were collected into appropriately labeled collection tubes. One cc blood samples were collected by catheter or venipuncture into EDTA collection tubes for ropinirole plasma concentrations by a validated HPLC with MS/MS detection. The plasma samples were frozen within two hours after collection and remained frozen until analyzed. PK Samples for the Dose Finding Phase (Oral dose) were drawn on days 1 and 14 at 60, 120, 180, 240 and 360 minutes after one oral dose of 1.0 mg/kg. PK Samples for the Experimentation Phase (NP201 implants) were drawn in all […] test groups in order to test the blood levels of ropinirole. […]

- variability of plasma levels [3]: much greater variability
Compound: CCCN(CCC)CCc1cccc2c1CC(=O)N2 [oral ropinirole, 4-(2-di-n-propylaminoethyl)-2(3H)-indolone]
- activity levels, Sat-Sun (weekend) ([1]; days 10-42, versus pre-MPTP baseline and placebo, no active oral agent given on weekend days): resembled placebo with reduced activity relative to baseline; also recorded: indistinguishable from placebo
- activity levels, Wed-Fri ([1]; days 10-42, versus pre-MPTP baseline, oral: peak about 1 hour after each dose during wake cycle): exceeded baseline, pre-MPTP levels
- overall pattern of activity (12-hour light/dark cycles) ([1]; versus pre-MPTP baseline / healthy monkeys): alternating periods of very high activity interspersed with normal levels; also recorded: alternating periods of very high and normal activity
- CRS measure versus placebo [2]: statistically superior to placebo
